# Data published in US11952364B2, “TRK inhibitors useful as anticancer drugs” (TYLIGAND BIOSCIENCE (SHANGHAI) LIMITED, priority 2018, dated 2024).
# Test system: Ba/F3 LMNA-NTRK1-G595R cells
# Experiment: Proliferation of Ba/F3 LMNA-NTRK1-G595R cells (CellTiter-Glo)
# Assay type: cell-based
# Conditions: Mus musculus, BaF3; Table 5; 72 hours
# Excerpt: Ba/F3 LMNA-NTRK1-G595R is a stable transgenic cell line constructed by KYinno Biotechnology Co., Ltd. on mouse primary B cell Ba/F3 wherein NTRK1 is highly expressed with a mutation of G at position 595 to R, and fused with LMNA to form LMNA-NTRK1. • [Test method]: Promega's CellTiter-Glo® Luminescent Cell Viability Assay kit was used to evaluate the inhibitory activity of the compounds on the proliferation of Ba/F3 LMNA-NTRK1-G595R cells. • [Instrument]: Spectramax M3 multifunctional microplate reader from Molecular Devices. • [Test materials]: Ba/F3 LMNA-NTRK1-G595R cell line (constructed by KYinno Biotechnology Co., Ltd. (Beijing)), 96-well transparent flat-bottomed black-walled cell culture plate (Corning, cat #3603), RPMI-1640 media (GE, cat #SH30027.01), fetal bovine serum FBS (Thermo Fisher, cat #10099-141), CellTiter-Glo® Luminescent Cell Viability Assay kit (Promega, cat #G7572), PBS (Solarbio, cat #P1020), DMSO (Sigma, cat #D2650). • [Experimental procedure]: When resuscitating Ba/F3 LMNA-NTRK1-G595R cells, the freezing tube was quickly shaken in a 37° C. water bath to melt within 1 minute. The thawed cell suspension was mixed uniformly with RPMI1640 medium containing 10% FBS, centrifuged at 1000 rpm for 5 minutes, and the supernatant discarded. 5 mL of complete medium (RPMI1640 medium with 10% FBS) was taken to resuspend the cell pellets, charged into a cell culture flask with a bottom area of 25 cm^2, and incubated in a cell incubator at 37° C., 95% humidity and 5% CO2. Cells were allowed to passage when the number of cells reached about 10^6 cells/mL. For cell passage, the old cell suspension was directly pipetted evenly, 1/5 of the cell suspension was kept, 4 mL of new complete medium was added, after pipetting evenly, the cell flask was placed in the cell incubator for further culturing. Cell plating was performed when the number of cells reached about 10^6 cells/mL again. For cell plating, 1/5 of the cell suspension was kept for further culturing as in the cell passage method, and the remaining 4/5 of the cell suspension was placed in a 15 mL centrifuge tube, detected for cell viability by Trypan blue exclusion method to ensure that cell viability was above 90%. A cell suspension with a density of 5.56×10^4 viable cells/mL was prepared with complete medium, and 90 μL of such cell suspension was added to a 96-well cell culture plate to obtain the cell density of 5000 viable cells/mL in the cell culture plate. A control group containing no cells, no compound and only complete medium (i.e. culture medium control) and a control group containing no compound but containing cells (i.e. cell control) were set. The cell plate was placed in a cell incubator overnight. The 10 mM compound stock solution in DMSO was first serially diluted with DMSO at a dilution factor of 3.16 times, to obtain 9 concentrations, and the 10th concentration was set as DMSO control without compound. Then, PBS was used to dilute the DMSO solutions of compounds of different concentrations, at a dilution factor of 100 times, so that the DMSO concentration in the compound solution of each concentration was 1%. Finally, 10 μL of each of the above solutions was added to the corresponding cell culture plate, so that the initial compound concentration was 10 μM, with the remaining concentrations being successively diluted at a dilution factor of 3.16 times, and the DMSO content in the cell culture plate was 0.1%. The cell plate was placed in a cell incubator and cultured for 72 hours. For endpoint detection, the CellTiter-Glo reagent was melted, and the cell plate was moved to room temperature to equilibrate for 30 minutes, added with 100 μL of CellTiter-Glo for each well, and shaken on an orbital shaker for 5 minutes to fully lyse the cells. The plate was kept at room temperature for 20 minutes to stabilize the luminescence signal, and the luminescence value of each well was scanned with a multi-functional microplate reader at full wavelength. • [Test samples] […]
row,IC50 [nM],Structure (SMILES)
1,3660,"O=C(Nc1cnn2ccc(N3CCC[C@@H]3c3cc(F)ccc3F)nc12)N1CC[C@H](O)C1 [LOXO-101, Larotrectinib, reference compound]"
2,747,"CC(C)c1ccc(C(=O)Nc2ccc(Oc3cc4cnn(C)c4cc3-c3cn[nH]c3)c(F)c2)c(=O)n1-c1ccc(F)cc1 [Example 6, N-(3-fluoro-4-(1-methyl-6-(1H-pyrazol-4-yl)-1H-indazol-5-yloxy)phenyl)-1-(4-fluorophenyl)-6-isopropyl-2-oxo-1,2-dihydropyridine-3-carboxamide]"
3,799,"CCc1ccc(C(=O)Nc2ccc(Oc3cc4cnn(C)c4cc3-c3cn[nH]c3)c(F)c2)c(=O)n1-c1ccc(F)cc1 [Example 5, N-(3-fluoro-4-(1-methyl-6-(1H-pyrazol-4-yl)-1H-indazol-5-yloxy)phenyl)-1-(4-fluorophenyl)-6-ethyl-2-oxo-1,2-dihydropyridine-3-carboxamide]"
4,752,"Cn1ncc2cc(Oc3ccc(NC(=O)c4ccc(C5CC5)n(-c5ccc(F)cc5)c4=O)cc3F)c(-c3cn[nH]c3)cc21 [Example 2, N-(3-fluoro-4-(1-methyl-6-(1H-pyrazol-4-yl)-1H-indazol-5-yloxy)phenyl)-1-(4-fluorophenyl)-6-cyclopropyl-2-oxo-1,2-dihydmpyridine-3-carboxamide]"
5,3150,"CCn1ncc2cc(Oc3ccc(NC(=O)c4ccc(C)n(-c5ccc(F)cc5)c4=O)cc3F)c(-c3cn[nH]c3)cc21 [Example 3, N-(3-fluoro-4-(1-ethyl-6-(1H-pyrazol-4-yl)-1H-indazol-5-yloxy)phenyl)-1-(4-fluorophenyl)-6-methyl-2-oxo-1,2-dihydmpyridine-3-carboxamide]"
6,4650,"Cc1ccc(C(=O)Nc2ccc(Oc3cc4cnn(C(C)C)c4cc3-c3cn[nH]c3)c(F)c2)c(=O)n1-c1ccc(F)cc1 [Example 4, N-(3-fluoro-4-(1-isopropyl-6-(1H-pyrazol-4-yl)-1H-indazol-5-yloxy)phenyl)-1-(4-fluorophenyl)-6-methyl-2-oxo-1,2-dihydmpyridine-3-carboxamide]"
7,1440,"Cn1ncc2cc(Oc3ccc(NC(=O)c4ccc(C(F)(F)F)n(-c5ccc(F)cc5)c4=O)cc3F)c(-c3cn[nH]c3)cc21 [Example 1, N-(3-fluoro-4-(1-methyl-6-(1H-pyrazol-4-yl)-1H-indazol-5-yloxy)phenyl)-1-(4-fluorophenyl)-6-trifluoromethyl-2-oxo-1,2-dihydmpyridine-3-carboxamide monomethanesulfonate]"
8,1010,"Cc1ccc(C(=O)Nc2ccc(Oc3cc4cnn(C)c4cc3-c3cn[nH]c3)c(F)c2)c(=O)n1-c1ccc(F)cc1 [Merestinib, reference compound]"
